Results as given in patent US9163015B2, “Pyrazolopyridine, pyrarolopyrazine, pyrazolopyrimidine, pyrazolothiophene and pyrazolothiazole compounds as MGLUR4 allosteric potentiators, compositions, and methods of treating neurological dysfunction” (Vanderbilt University, priority 2010, dated 2015).

What follows are compounds tested against human mGluR4 (Homo sapiens (Human), UniProt Q14833) (assay: mGluR4 potentiation assay, CHO cells transfected with human mGluR4, Ca2+-sensitive fluorescent dye, EC20 agonist). Conditions: potentiation of mGluR4; table does not state human or rat receptor.
Type: cell-based
Protocol: The disclosed compounds and compositions can be evaluated for their ability to act as a potentiator of metabotropic glutamate receptor activity, in particular mGluR4 activity, by any suitable known methodology known in the art. For example, Chinese Hamster Ovary (CHO) cells transfected with human mGluR4 or HEK cells co-transfected with rat mGluR4 and the G-protein regulated Inwardly Rectifying Potassium channel (GIRK) were plated in clear bottom assay plates for assay in a Hamamatsu FDSS Fluorometric Plate Reader. The cells were loaded with either a Ca2+-sensitive fluorescent dye or the thallium responsive dye and the plates were washed and placed into a suitable kinetic plate reader. For human mGluR4 assays, a fluorescence baseline was established for 3-5 seconds, the disclosed compounds were then added to the cells, and the response in cells was measured. Approximately two and a half minutes later, a concentration of mGluR4 orthosteric agonist (e.g. glutamate or L-AP4) eliciting approximately 20% (EC20) of the maximal agonist response was added to the cells, and the response was measured. Two minutes later, a concentration of mGluR4 agonist (e.g. glutamate or L-AP4) eliciting 80% (EC80) of the maximal agonist response was added to the cells, and the response was measured. For rat mGluR4/GIRK experiments, a baseline was established for approximately five seconds, disclosed compounds were added, and either an EC20 or EC80 concentration of agonist was added approximately two and one half minutes later.
The above described assay operated in two modes. In the first mode, a range of concentrations of the disclosed compounds are added to cells, followed by a single fixed concentration of agonist. If the compound acts as a potentiatior, an EC50 value for potentiation and a maximum extent of potentiation by the compound at this concentration of agonist is determined by non-linear curve fitting. If the compound acts as a noncompetitive antagonist, an IC50 value is determined by non-linear curve fitting. In the second mode, several fixed concentrations of the disclosed compounds are added to various wells on a plate, followed by a range in concentrations of agonist for each concentration of disclosed compound. The EC50 values for the agonist at each concentration of compound are determined by non-linear curve fitting. A decrease in the EC50 value of the agonist with increasing concentrations of the sample compound (a leftward shift of the agonist concentration-response curve) is an indication of the degree of mGluR4 potentiation at a given concentration of the sample compound. A decrease in the maximal response of the agonist with increasing concentrations of the sample compounds, with or without a rightward shift in agonist potency, is an indication of the degree of noncompetitive antagonism at mGluR4. The second mode also indicates whether the sample compounds also affect the maximum response to mGluR4 to agonists.

Chain of human mGluR4 (Q14833 33-912): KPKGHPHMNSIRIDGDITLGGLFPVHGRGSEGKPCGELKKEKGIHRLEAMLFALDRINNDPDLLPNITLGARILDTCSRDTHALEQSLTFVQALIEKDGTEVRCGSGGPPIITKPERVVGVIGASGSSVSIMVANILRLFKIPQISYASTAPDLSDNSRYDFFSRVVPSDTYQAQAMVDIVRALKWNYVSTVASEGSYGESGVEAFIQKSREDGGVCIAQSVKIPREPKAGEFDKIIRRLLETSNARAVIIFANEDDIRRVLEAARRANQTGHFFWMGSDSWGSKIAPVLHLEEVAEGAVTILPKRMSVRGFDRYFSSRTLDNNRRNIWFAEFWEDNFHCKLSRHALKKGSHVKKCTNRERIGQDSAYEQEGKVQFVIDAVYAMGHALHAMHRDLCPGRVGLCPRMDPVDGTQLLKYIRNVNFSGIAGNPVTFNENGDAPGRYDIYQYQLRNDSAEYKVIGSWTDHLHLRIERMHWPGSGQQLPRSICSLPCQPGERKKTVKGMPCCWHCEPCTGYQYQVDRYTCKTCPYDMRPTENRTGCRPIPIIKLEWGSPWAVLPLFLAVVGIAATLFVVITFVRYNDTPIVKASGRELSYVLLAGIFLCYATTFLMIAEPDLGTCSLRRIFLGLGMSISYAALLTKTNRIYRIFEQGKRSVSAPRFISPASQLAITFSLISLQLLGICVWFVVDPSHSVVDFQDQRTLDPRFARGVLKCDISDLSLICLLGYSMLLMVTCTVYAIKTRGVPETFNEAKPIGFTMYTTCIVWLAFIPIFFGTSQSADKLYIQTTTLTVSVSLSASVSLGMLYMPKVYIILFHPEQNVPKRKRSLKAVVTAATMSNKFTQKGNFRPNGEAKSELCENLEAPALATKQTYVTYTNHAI

Going from Clc1cc(Nc2n[nH]c3cccnc23)cnc1N1CCCC1 [Example 31, N-(5-chloro-6-(pyrrolidin-l-yl)pyridin-3-yl)-1H-pyrazolo[4,3-b]pyridin-3-amine] to Clc1cc(Nc2n[nH]c3cccnc23)cnc1N1CCOCC1 [Example 30, N-(5-chloro-6-morpholinopyridin-3-yl)-1H-pyrazolo[4,3-b]pyridin-3-amine], the EC50 rises from 1550 nM to 2380 nM (1.5-fold).

Going from Clc1cncc(Nc2n[nH]c3cccnc23)n1 [Example 32, N-(6-chloropyrazin-2-yl)-1H-pyrazolo[4,3-b]pyridin-3-amine] to Clc1cncc(Nc2n[nH]c3cccnc23)c1 [Example 14, N-(5-chloropyridin-3-yl)-1H-pyrazolo[4,3-b]pyridin-3-amine], the EC50 falls from 9990 nM to 353 nM (28-fold).

Cc1cc(Nc2n[nH]c3cccnc23)ccc1Cl [Example 7, N-(4-chloro-3-methylphenyl)-1H-pyrazolo[4,3-b]pyridin-3-amine] and Cc1ccc(Nc2n[nH]c3cccnc23)cc1Cl [Example 83, N-(3-chloro-4-methylphenyl)-1H-pyrazolo[4,3-b]pyridin-3-amine] are within 1.5-fold of each other in EC50: 164 nM for the first, 165 nM for the second.

First: Clc1cccc(CNc2n[nH]c3cccnc23)c1 [Example 50, N-(3-chlorobenzyl)-1H-pyrazolo[4,3-b]pyridin-3-amine]
Second: Fc1ccc(CNc2n[nH]c3cccnc23)cc1Cl [Example 51, N-(3-chloro-4-fluorobenzyl)-1H-pyrazolo[4,3-b]pyridin-3-amine]
The EC50 of the first is 2.4-fold higher: 17300 nM for the first, 7080 nM for the second.

Compared with Clc1cccc(Nc2n[nH]c3cccnc23)c1 [Example 1, N-(3-chlorophenyl)-1H-pyrazolo[4,3-b]pyridin-3-amine], Fc1cccc(Nc2n[nH]c3cccnc23)c1 [Example 12, N-(3-fluorophenyl)-1H-pyrazolo[4,3-b]pyridin-3-amine] is 4.2-fold higher in EC50: 138 nM for the first, 584 nM for the second.

c1ccc2ncc(Nc3n[nH]c4cccnc34)cc2c1 [Example 40, N-(1H-pyrazolo[4,3-b]pyridin-3-yl)quinolin-3-amine] and c1ccc(Nc2n[nH]c3cccnc23)cc1 [Example 20, N-phenyl-1H-pyrazolo[4,3-b]pyridin-3-amine] are within 1.5-fold of each other in EC50: 961 nM for the first, 1440 nM for the second.

Compared with CN(c1cccc(Cl)c1)c1n[nH]c2cccnc12 [Example 86, N-(3-chlorophenyl)-N-methyl-1H-pyrazolo[4,3-b]pyridin-3-amine], Cc1ccc(Cl)cc1Nc1n[nH]c2cccnc12 [Example 78, N-(5-chloro-2-methylphenyl)-1H-pyrazolo[4,3-b]pyridin-3-amine] is 20-fold lower in EC50: 8010 nM for the first, 410 nM for the second. The second is the more potent here.

First: O=C(c1ccccc1)c1ccc(Nc2n[nH]c3cccnc23)cc1Cl [Example 64, (4-((1H-pyrazolo[4,3-b]pyridin-3-yl)amino)-2-chlorophenyl)(phenyl)methanone]
Second: O=C(c1cccc(C(F)(F)F)c1)c1ccc(Nc2n[nH]c3cccnc23)cc1Cl [Example 38, (4-((1H-pyrazolo[4,3-b]pyridin-3-yl)amino)-2-chlorophenyl)(3-(trifluoromethyl)phenyl)methanone]
The EC50 of the first is 11-fold lower: 351 nM for the first, 3880 nM for the second.

Compared with Fc1ccc(Nc2n[nH]c3cccnc23)cc1C(F)(F)F [Example 71, N-(4-fluoro-3-(trifluoromethyl)phenyl)-1H-pyrazolo[4,3-b]pyridin-3-amine], Fc1ccc(Nc2n[nH]c3cccnc23)cc1F [Example 5, N-(3,4-difluorophenyl)-1H-pyrazolo[4,3-b]pyridin-3-amine] is 1.7-fold higher in EC50: 385 nM for the first, 644 nM for the second. The first is the more potent here.

Going from Clc1cc(Nc2n[nH]c3cccnc23)cnc1Oc1ccccn1 [Example 96, N-(5-chloro-6-(pyridin-2-yloxy)pyridin-3-yl)-1H-pyrazolo[4,3-b]pyridin-3-amine] to Clc1cc(Nc2n[nH]c3cccnc23)ccc1Oc1cnccn1 [Example 66, N-(3-chloro-4-(pyrazin-2-yloxy)phenyl)-1H-pyrazolo[4,3-b]pyridin-3-amine], the EC50 falls from 3360 nM to 108 nM (31-fold). The second is the more potent here.

First: Cn1ccc2ccc(Nc3n[nH]c4cccnc34)cc21 [Example 53, N-(1-methyl-1H-indol-6-yl)-1H-pyrazolo[4,3-b]pyridin-3-amine]
Second: Cc1cc(Nc2n[nH]c3cccnc23)ccc1F [Example 82, N-(4-fluoro-3-methylphenyl)-1H-pyrazolo[4,3-b]pyridin-3-amine]
The EC50 of the first is 53-fold higher: 3590 nM for the first, 68 nM for the second.

Fc1ccc2[nH]nc(Nc3ccc(F)c(Cl)c3)c2n1 [Example 95, N-(3-chloro-4-fluorophenyl)-5-fluoro-1H-pyrazolo[4,3-b]pyridin-3-amine] and Oc1ccc(Nc2n[nH]c3cccnc23)cc1Cl [Example 36, 4-((1H-pyrazolo[4,3-b]pyridin-3-yl)amino)-2-chlorophenol] are within 1.5-fold of each other in EC50: 312 nM for the first, 217 nM for the second.

Going from FC(F)(F)c1cc(Nc2n[nH]c3cccnc23)cc(C(F)(F)F)c1 [Example 67, N-(3,5-bis(trifluoromethyl)phenyl)-1H-pyrazolo[4,3-b]pyridin-3-amine] to Fc1cc(Cl)cc(Nc2n[nH]c3cccnc23)c1 [Example 70, N-(3-chloro-5-fluorophenyl)-1H-pyrazolo[4,3-b]pyridin-3-amine], the EC50 falls from 3050 nM to 32 nM (95-fold).

Compared with Fc1cc(Nc2n[nH]c3cccnc23)cc(F)c1F [Example 80, N-(3,4,5-trifluorophenyl)-1H-pyrazolo[4,3-b]pyridin-3-amine], Fc1c(Cl)cc(Nc2n[nH]c3cccnc23)cc1Cl [Example 43, N-(3,5-dichloro-4-fluorophenyl)-1H-pyrazolo[4,3-b]pyridin-3-amine] is 2.8-fold higher in EC50: 146 nM for the first, 410 nM for the second.

Compared with Clc1cccc(Oc2ccc(Nc3n[nH]c4cccnc34)cc2Cl)n1 [Example 77, N-(3-chloro-4-((6-chloropyridin-2-yl)oxy)phenyl)-1H-pyrazolo[4,3-b]pyridin-3-amine], Clc1ccc(Oc2ccc(Nc3n[nH]c4cccnc34)cc2Cl)cc1 [Example 81, N-(3-chloro-4-(4-chlorophenoxy)phenyl)-1H-pyrazolo[4,3-b]pyridin-3-amine] is 18-fold higher in EC50: 88 nM for the first, 1540 nM for the second. The first is the more potent here.

COc1cc(Nc2n[nH]c3cccnc23)ccc1F [Example 11, N-(4-fluoro-3-methoxyphenyl)-1H-pyrazolo[4,3-b]pyridin-3-amine] and COc1cc(Nc2n[nH]c3cccnc23)ccc1Cl [Example 6, N-(4-chloro-3-methoxyphenyl)-1H-pyrazolo[4,3-b]pyridin-3-amine] are within 1.5-fold of each other in EC50: 1030 nM for the first, 1110 nM for the second.

First: CCc1cccc(Nc2n[nH]c3cccnc23)c1 [Example 60, N-(3-ethylphenyl)-1H-pyrazolo[4,3-b]pyridin-3-amine]
Second: COc1cccc(Nc2n[nH]c3cccnc23)c1 [Example 19, N-(3-methoxyphenyl)-1H-pyrazolo[4,3-b]pyridin-3-amine]
The EC50 of the first is 15-fold higher: 2580 nM for the first, 169 nM for the second.

First: Fc1cc(Nc2n[nH]c3cccnc23)ccc1Oc1ncccn1 [Example 74, N-(3-fluoro-4-(pyrimidin-2-yloxy)phenyl)-1H-pyrazolo[4,3-b]pyridin-3-amine]
Second: Oc1ccc(Nc2n[nH]c3cccnc23)cc1F [Example 73, 4-((1H-pyrazolo[4,3-b]pyridin-3-yl)amino)-2-fluorophenol]
The EC50 of the first is 7.9-fold higher: 2760 nM for the first, 349 nM for the second.

Going from Clc1ccnc(Nc2n[nH]c3cccnc23)c1 [Example 13, N-(4-chloropyridin-2-yl)-1H-pyrazolo[4,3-b]pyridin-3-amine] to Fc1ncc(Cl)cc1Nc1n[nH]c2cccnc12 [Example 34, N-(5-chloro-2-fluoropyridin-3-yl)-1H-pyrazolo[4,3-b]pyridin-3-amine], the EC50 rises from 284 nM to 597 nM (2.1-fold). The first is the more potent here.

Going from Clc1cc(Nc2n[nH]c3cccnc23)ccc1OCc1ccccc1 [Example 87, N-(4-(benzyloxy)-3-chlorophenyl)-1H-pyrazolo[4,3-b]pyridin-3-amine] to Clc1cc(Nc2n[nH]c3cccnc23)cnc1Cl [Example 47, N-(5,6-dichloropyridin-3-yl)-1H-pyrazolo[4,3-b]pyridin-3-amine], the EC50 rises from 426 nM to 1020 nM (2.4-fold).

Compared with CN1C(=O)COc2cc(Nc3n[nH]c4cccnc34)ccc21 [Example 54, 7-((1H-pyrazolo[4,3-b]pyridin-3-yl)amino)-4-methyl-2H-benzo[b][1,4]oxazin-3(4H)-one], Cc1cncc(Nc2n[nH]c3cccnc23)c1 [Example 33, N-(5-methylpyridin-3-yl)-1H-pyrazolo[4,3-b]pyridin-3-amine] is lower in EC50: > 10000 nM for the first, 7380 nM for the second. The second is the more potent here.

Going from Fc1cncc(Nc2n[nH]c3cccnc23)c1 [Example 4, N-(5-fluoropyridin-3-yl)-1H-pyrazolo[4,3-b]pyridin-3-amine] to Clc1cc(Nc2n[nH]c3cccnc23)cc(Cl)c1Cl [Example 42, N-(3,4,5-trichlorophenyl)-1H-pyrazolo[4,3-b]pyridin-3-amine], the EC50 falls from 9180 nM to 721 nM (13-fold). The second is the more potent here.
